This note sets out measurements from US12391737B2, “Soluble NPY2 receptor agonists” (Boehringer Ingelheim International GmbH, priority 2020, dated 2025).

One data set is described as follows: Solubility determination. Conditions: for Sol6: pH 6; for Sol7: pH 7. An outline of the steps: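 Sample: TFA-salt peptide at 10 mg/ml target in 0.1 M Na diphosphate, pH 6.4 or 7.0, shaken 2 h RT, filtered, diluted to 1 mg/ml.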
Data set [1] addresses T1, human NPY4 receptor (hY4R) (Homo sapiens, UniProt P50391).
T1 construct: expressed in transfected cells; host or cells: CHO-K1
Description: HTRF cAMP Gi assay, hY4R. Conditions: CHO-K1 cells. Format: cell-based. (TR-FRET usually uses a lanthanide donor and a delayed reading to cut background.)

Data set [2] addresses T2, Human Neuropeptide Y2 Receptor (Homo sapiens, UniProt P49146).
T2 construct: purchased CHEMICON HTS066M
T2 sequence (P49146 1-381): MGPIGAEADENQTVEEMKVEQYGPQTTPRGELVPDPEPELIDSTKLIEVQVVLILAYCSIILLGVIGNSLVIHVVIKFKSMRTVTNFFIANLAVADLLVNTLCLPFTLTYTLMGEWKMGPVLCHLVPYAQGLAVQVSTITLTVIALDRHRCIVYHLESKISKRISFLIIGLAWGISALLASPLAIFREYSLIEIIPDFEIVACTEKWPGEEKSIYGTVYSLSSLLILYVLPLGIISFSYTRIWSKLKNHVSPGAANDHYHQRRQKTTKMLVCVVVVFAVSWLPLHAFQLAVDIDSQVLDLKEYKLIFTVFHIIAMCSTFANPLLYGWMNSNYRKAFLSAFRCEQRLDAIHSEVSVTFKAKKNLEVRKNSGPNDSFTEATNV
Description: Radioligand binding competition assay (RLB). Conditions: Table 3, 125I-PYY(1-36) competition; read-out: Ki. An outline of the steps:
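Filtration competition binding on membranes from cells expressing the receptor, 0.5 μg protein/well, in 50 mM HEPES, 5 mM MgCl2, 1 mM CaCl2, pH 7.4, with 0.2% ovalbumin. Incubation ran 2 h at room temperature, followed by GF/C filtration and scintillation counting. IC50 came from nonlinear sigmoidal fits.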

The target of data set [3] is T3, human NPY5 receptor (hY5R) (Homo sapiens, UniProt Q15761).
T3 sequence (Q15761 1-445): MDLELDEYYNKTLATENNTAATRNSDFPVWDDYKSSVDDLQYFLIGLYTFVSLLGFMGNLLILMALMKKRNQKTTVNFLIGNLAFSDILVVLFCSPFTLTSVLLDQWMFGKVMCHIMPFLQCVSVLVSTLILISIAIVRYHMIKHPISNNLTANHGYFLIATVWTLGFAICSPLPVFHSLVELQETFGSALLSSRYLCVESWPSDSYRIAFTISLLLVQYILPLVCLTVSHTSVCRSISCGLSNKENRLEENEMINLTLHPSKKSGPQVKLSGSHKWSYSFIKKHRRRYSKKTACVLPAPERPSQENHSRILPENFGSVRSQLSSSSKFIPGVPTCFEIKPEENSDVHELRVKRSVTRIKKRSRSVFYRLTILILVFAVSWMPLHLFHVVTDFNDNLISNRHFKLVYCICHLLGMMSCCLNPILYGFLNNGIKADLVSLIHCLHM
Description: HTRF cAMP Gi assay, hY5R.

Data set [4] addresses T4, human NPY1 receptor (hY1R) (Homo sapiens, UniProt P25929).
T4 construct: expressed in transfected cells; host or cells: CHO-K1
T4 sequence (P25929 1-384): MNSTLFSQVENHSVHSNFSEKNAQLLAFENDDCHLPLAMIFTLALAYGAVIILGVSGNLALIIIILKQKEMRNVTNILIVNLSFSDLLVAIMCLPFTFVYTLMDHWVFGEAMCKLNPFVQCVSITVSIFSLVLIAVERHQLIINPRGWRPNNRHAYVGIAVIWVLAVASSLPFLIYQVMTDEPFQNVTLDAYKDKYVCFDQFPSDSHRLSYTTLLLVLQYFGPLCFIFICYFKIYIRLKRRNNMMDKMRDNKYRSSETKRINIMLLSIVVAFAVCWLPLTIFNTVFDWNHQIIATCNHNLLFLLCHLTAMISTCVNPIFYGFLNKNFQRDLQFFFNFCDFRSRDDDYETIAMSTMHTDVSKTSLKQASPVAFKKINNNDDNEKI
In words: HTRF cAMP Gi assay, hY1R. Type of data set: cell-based. Conditions: CHO-K1 cells.
Description: Briefly, the production of intracellular cAMP will generate a competition between unlabeled cAMP and exogenously added d2-cAMP for anti-cAMP antibodies conjugated to cryptate. CHO-K1 cells stably expressing the human NPY1, NPY2, NPY4 and NPY5 receptors were used with the cells brought to life from a frozen stock immediately before assay performance. 2000 cells per well were applied for all four NPY receptor subtype assays. A 384-well format was used applying a total volume of 20 μl using 5 μl cells, 2.5 μl peptide agonist, 2.5 μl forskolin and 5 μl of each of the fluorophores. […] Concentration-response evaluation of compounds was performed with 11 concentrations of agonist peptides (covering 3 decades). EC50 values were calculated by nonlinear regression using sigmoid concentration-response with variable slope.

Data set [5] concerns the target T5, human NPY2 receptor (hY2R) (Homo sapiens, UniProt P49146).
T5 sequence (P49146 1-381): T2 sequence (P49146 1-381)
In words: HTRF cAMP Gi assay, hY2R.
Description: The Homogenous Time Resolved fluorescence (HTRF) technology optimized for Gi coupled receptors has thoroughly been described in Cisbio cAMP Gi kit manual. Briefly, the production of intracellular cAMP will generate a competition between unlabeled cAMP and exogenously added d2-cAMP for anti-cAMP antibodies conjugated to cryptate. CHO-K1 cells stably expressing the human NPY1, NPY2, NPY4 and NPY5 receptors were used with the cells brought to life from a frozen stock immediately before assay performance. 2000 cells per well were applied for all four NPY receptor subtype assays. A 384-well format was used applying a total volume of 20 μl using 5 μl cells, 2.5 μl peptide agonist, 2.5 μl forskolin and 5 μl of each of the fluorophores. […] Concentration-response evaluation of compounds was performed with 11 concentrations of agonist peptides (covering 3 decades). EC50 values were calculated by nonlinear regression using sigmoid concentration-response with variable slope.

Molecules are shown by their SMILES.

T1 sequence (P50391 whole entry): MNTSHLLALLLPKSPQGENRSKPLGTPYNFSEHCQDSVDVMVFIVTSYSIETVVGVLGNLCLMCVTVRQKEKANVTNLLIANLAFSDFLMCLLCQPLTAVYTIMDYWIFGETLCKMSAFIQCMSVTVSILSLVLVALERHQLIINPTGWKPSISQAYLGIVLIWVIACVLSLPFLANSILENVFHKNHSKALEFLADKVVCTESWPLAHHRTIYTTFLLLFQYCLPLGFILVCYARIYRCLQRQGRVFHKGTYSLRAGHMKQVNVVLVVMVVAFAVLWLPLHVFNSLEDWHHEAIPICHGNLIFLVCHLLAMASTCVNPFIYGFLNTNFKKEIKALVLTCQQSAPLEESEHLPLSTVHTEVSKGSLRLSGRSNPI

A word on the EC50: it is the concentration that produces a half-maximal response. One may read the Ki as the equilibrium dissociation constant of an inhibitor or competing ligand from its target. Consider `CC(C)CC(=O)N[C@@H](C)C(=O)N1CCC[C@H]1C(=O)N[C@@H](CCC(=O)O)C(=O)N[C@@H](CCCCNC(=O)CCCCCNC(=O)CC[C@H](NC(=O)CCCCCCCCCCCCCCCCC(=O)O)C(=O)O)C(=O)N1CCC[C@H]1C(=O)N[C@@H](CCC(=O)O)C(=O)N[C@@H](CCC(=O)O)C(=O)N[C@@H](CC(=O)O)C(=O)N[C@@H](C)C(=O)N[C@@H](CCC(=O)O)C(=O)N1CCC[C@H]1C(=O)N[C@@H](CCC(=O)O)C(=O)N[C@@H](CCC(=O)O)C(=O)N[C@H](C(=O)N[C@@H](CCC(N)=O)C(=O)N[C@@H](CCCNC(=N)N)C(=O)N[C@@H](Cc1ccc(O)cc1)C(=O)N[C@@H](Cc1ccc(O)cc1)C(=O)N[C@H](C(=O)N[C@@H](CO)C(=O)N[C@@H](CC(C)C)C(=O)N[C@@H](CCCNC(=N)N)C(=O)N[C@@H](Cc1c[nH]cn1)C(=O)N[C@@H](Cc1ccc(O)cc1)C(=O)N[C@@H](Cc1ccc(O)cc1)C(=O)N[C@@H](CC(N)=O)C(=O)N[C@@H](Cc1c[nH]c2ccccc12)C(=O)N[C@@H](CC(C)C)C(=O)N[C@H](C(=O)N[C@@H](CCCNC(=N)N)C(=O)N[C@@H](CCC(N)=O)C(=O)N[C@@H](CCCNC(=N)N)C(=O)N[C@@H](Cc1ccc(O)cc1)C(N)=O)[C@@H](C)O)C(C)C)C(C)C` [Compound 53, N{alpha-4}-(3-methylbutanoyl)-N{epsilon-7}-(6-[(4S)-4-carboxy-4-(17-carboxyheptadecanamido)butanamido]hexanoyl)-[4A,7K,9E,13E,17V,18Q,22V,28Y,30W,31L]-hPYY(4-36)], for which the “Sol6” value in the data set “Solubility determination” turned out to be 8.7 mg/mL. Moreover, the “Sol7” value in the data set “Solubility determination” was 9.6 mg/mL. Besides, the EC50 in data set [1] was greater than 5000 nM; in data set [3] it was greater than 5000 nM; in data set [4], greater than 5000 nM; in data set [5] it was 0.352 nM. The Ki in data set [2] was 3.07 nM.
Regarding `CC[C@H](C)[C@H](NC(=O)[C@H](CCC(=O)O)NC(=O)[C@H](CCC(=O)O)NC(=O)[C@H](CCC(=O)O)NC(=O)[C@H](CO)NC(=O)[C@H](C)NC(=O)[C@H](CC(=O)O)NC(=O)[C@H](CCC(=O)O)NC(=O)[C@H](CCC(=O)O)NC(=O)[C@@H]1CCCN1C(=O)[C@H](CCCCNC(=O)CCCCCNC(=O)CC[C@H](NC(=O)CCCCCCCCCCCCCCCCC(=O)O)C(=O)O)NC(=O)[C@H](CCC(=O)O)NC(=O)[C@@H]1CCCN1C(=O)[C@H](C)NC(=O)CC(C)C)C(=O)N[C@@H](CCC(N)=O)C(=O)N[C@@H](CCCNC(=N)N)C(=O)N[C@@H](Cc1ccc(O)cc1)C(=O)N[C@@H](Cc1ccc(O)cc1)C(=O)N[C@H](C(=O)N[C@@H](CO)C(=O)N[C@@H](CC(C)C)C(=O)N[C@@H](CCCNC(=N)N)C(=O)N[C@@H](Cc1c[nH]cn1)C(=O)N[C@@H](Cc1ccc(O)cc1)C(=O)N[C@@H](Cc1ccc(O)cc1)C(=O)N[C@@H](CC(N)=O)C(=O)N[C@@H](Cc1c[nH]c2ccccc12)C(=O)N[C@@H](CC(C)C)C(=O)N[C@H](C(=O)N[C@@H](CCCNC(=N)N)C(=O)N[C@@H](CCC(N)=O)C(=O)N[C@@H](CCCNC(=N)N)C(=O)N[C@@H](Cc1ccc(O)cc1)C(N)=O)[C@@H](C)O)C(C)C` [Compound 55, N{alpha-4}-(3-methylbutanoyl)-N{epsilon-7}-(6-[(4S)-4-carboxy-4-(17-carboxyheptadecanamido)butanamido]hexanoyl)-[4A,7K,9E,14E,17I,18Q,22V,28Y,30W,31L]-hPYY(4-36)], in “Solubility determination”, the “Sol6” value was greater than 10.0 mg/mL. Further, in “Solubility determination”, the “Sol7” value is greater than 10.0 mg/mL. The EC50 in data set [1] was greater than 5000 nM; in data set [3], greater than 5000 nM; in data set [4] it was greater than 5000 nM; in data set [5] it was 0.352 nM. Further, the Ki in data set [2] was 2.96 nM.
In the case of `CC[C@H](C)[C@H](NC(=O)[C@H](Cc1ccc(O)cc1)NC(=O)[C@H](Cc1ccc(O)cc1)NC(=O)[C@H](CCCNC(=N)N)NC(=O)[C@H](CCC(N)=O)NC(=O)[C@@H](NC(=O)[C@H](CCC(=O)O)NC(=O)[C@H](CCC(=O)O)NC(=O)[C@@H]1CCCN1C(=O)[C@H](CO)NC(=O)[C@H](C)NC(=O)[C@H](CC(=O)O)NC(=O)[C@H](CCC(=O)O)NC(=O)[C@H](CCC(=O)O)NC(=O)[C@@H]1CCCN1C(=O)[C@H](CCCCNC(=O)CCCCCNC(=O)CC[C@H](NC(=O)CCCCCCCCCCCCCCCCC(=O)O)C(=O)O)NC(=O)[C@H](C)NC(=O)[C@@H]1CCCN1C(=O)[C@H](C)NC(=O)CC(C)C)[C@@H](C)CC)C(=O)N[C@@H](CO)C(=O)N[C@@H](CC(C)C)C(=O)N[C@@H](CCCNC(=N)N)C(=O)N[C@@H](Cc1c[nH]cn1)C(=O)N[C@@H](Cc1ccc(O)cc1)C(=O)N[C@@H](Cc1ccc(O)cc1)C(=O)N[C@@H](CC(N)=O)C(=O)N[C@@H](Cc1c[nH]c2ccccc12)C(=O)N[C@@H](CC(C)C)C(=O)N[C@H](C(=O)N[C@@H](CCCNC(=N)N)C(=O)N[C@@H](CCC(N)=O)C(=O)N[C@@H](CCCNC(=N)N)C(=O)N[C@@H](Cc1ccc(O)cc1)C(N)=O)[C@@H](C)O` [Compound 195, N{alpha-4}-(3-methylbutanoyl)-N{epsilon-7}-(6-[(4S)-4-carboxy-4-(17-carboxyheptadecanamido)butanamido]hexanoyl)-[4A,6A,7K,9E,17I,18Q,22I,28Y,30W,31L]-hPYY(4-36)], the “Sol6” value in the data set “Solubility determination” is 8.2 mg/mL. In the data set “Solubility determination”, the “Sol7” value is 8.2 mg/mL. Moreover, the EC50 is greater than 5000 nM in data set [1], greater than 5000 nM in data set [3], greater than 5000 nM in data set [4] and 0.197 nM in data set [5]. The Ki in data set [2] was determined as 0.78 nM.
